Data reported in US7232906B2, “Substituted pyrrolines as kinase inhibitors” (Janssen Pharmaceutica N.V., priority 2002, dated 2007).

Key:
Type in all cases: biochemical
[1] = molecular target: recombinant rabbit GSK-3β (Oryctolagus cuniculus, UniProt G1T8E2); experiment: Glycogen Synthase Kinase-3 assay; set-up: GSK-3β Assay Activity, % @ 200 nM: scale not given here; conditions: PPI-2 substrate; for IC50: 33P-ATP, 90 minutes at 30° C.
Procedure: Compounds were tested for the ability to inhibit recombinant rabbit GSK-3β using the following protocol. The test compound was added to a reaction mixture containing Protein phosphatase inhibitor-2 (PPI-2) (Calbiochem) (45 ng), rabbit GSK-3β (New England Biolabs) (0.75 units) and ^33P-ATP (1 μCi) in 50 mM Tris-HCl (pH 8.0), 10 mM MgCl2, 0.1% BSA, 1 mM DTT and 100 μM Sodium Vanadate. The mixture was reacted for 90 minutes at 30° C. to allow phosphorylation of the PPI-2 protein and then the protein in the reaction was precipitated using 10% TCA. The precipitated protein was collected on filter plates (MultiScreen-DV/Millipore), which were subsequently washed. Finally, the radioactivity was quantified using a TopCount Scintillation Counter (Packard). […] Staurosporine or Valproate, known inhibitors of GSK-3β, were used as a positive control for screening.

PKC β-II = PKC β-II (Homo sapiens, UniProt P05771); experiment: Protein Kinase C histone-based assay, β-II isoform; set-up: PKC Activity Beta II, % @ 1 μM (Histone Based Assay): scale not given here; conditions: histone III substrate; for IC50: 30 μM ATP, approximately ± 30 percent margin of error, read-out: PKC Activity Beta II (IC50, Histone Based Assay)
Procedure: (§1) Compounds were evaluated for PKC selectivity using histone III as the substrate. The PKC isoforms α, β-II or γ were added to a reaction mixture that contained 20 mM HEPES, (pH 7.4), 940 μM CaCl2, 10 mM MgCl2, 1 mM EGTA. 100 μg/mL phosphatidylserine, 20 μg/mL diacylglycerol, 30 μM ATP, 1 μCi (^33P)ATP and 200 μg/mL histone III. The reaction was incubated for 10 min at 30° C. Reactions were terminated by TCA precipitation and spotting on Whatman P81 filters. Filters were washed in 75 mM phosphoric acid and the radioactivity quantified by liquid scintillation counting.

PKC α = PKC α (Homo sapiens, UniProt P17252); experiment: Protein Kinase C histone-based assay, α isoform; set-up: PKC Activity Alpha, % @ 10 μM (Histone Based Assay): scale not given here; conditions: histone III substrate; for IC50: 30 μM ATP, approximately ± 30 percent margin of error, read-out: PKC Activity Alpha (IC50, Histone Based Assay)
Procedure: as §1

PKC γ = PKC γ (Homo sapiens, UniProt P05129); experiment: Protein Kinase C histone-based assay, γ isoform; set-up: PKC Activity Gamma, % @ 10 μM (Histone Based Assay): scale not given here; conditions: histone III substrate; for IC50: 30 μM ATP, approximately ± 30 percent margin of error, read-out: PKC Activity Gamma (IC50, Histone Based Assay)
Procedure: as §1

PKC β-II, sequence (P05771 1-673 isoform P05771-2): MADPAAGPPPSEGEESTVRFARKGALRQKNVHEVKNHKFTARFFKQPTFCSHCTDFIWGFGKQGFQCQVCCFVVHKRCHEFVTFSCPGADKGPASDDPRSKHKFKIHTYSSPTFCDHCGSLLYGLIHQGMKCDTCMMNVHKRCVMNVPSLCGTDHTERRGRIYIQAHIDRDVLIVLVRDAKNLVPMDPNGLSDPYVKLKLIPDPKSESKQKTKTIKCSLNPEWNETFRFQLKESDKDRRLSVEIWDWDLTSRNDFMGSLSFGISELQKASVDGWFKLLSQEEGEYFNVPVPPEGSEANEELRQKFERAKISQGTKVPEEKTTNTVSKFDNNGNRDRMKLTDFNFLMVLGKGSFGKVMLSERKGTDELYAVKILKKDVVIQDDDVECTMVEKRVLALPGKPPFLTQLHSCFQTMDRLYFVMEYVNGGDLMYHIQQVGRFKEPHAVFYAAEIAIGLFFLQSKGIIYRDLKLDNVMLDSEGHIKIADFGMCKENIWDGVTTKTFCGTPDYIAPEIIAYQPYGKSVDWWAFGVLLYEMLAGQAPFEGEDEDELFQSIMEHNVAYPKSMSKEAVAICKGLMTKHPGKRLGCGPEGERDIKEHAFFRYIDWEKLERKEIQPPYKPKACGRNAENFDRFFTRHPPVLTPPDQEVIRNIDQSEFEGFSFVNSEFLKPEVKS
recombinant rabbit GSK-3β, sequence (G1T8E2 1-432): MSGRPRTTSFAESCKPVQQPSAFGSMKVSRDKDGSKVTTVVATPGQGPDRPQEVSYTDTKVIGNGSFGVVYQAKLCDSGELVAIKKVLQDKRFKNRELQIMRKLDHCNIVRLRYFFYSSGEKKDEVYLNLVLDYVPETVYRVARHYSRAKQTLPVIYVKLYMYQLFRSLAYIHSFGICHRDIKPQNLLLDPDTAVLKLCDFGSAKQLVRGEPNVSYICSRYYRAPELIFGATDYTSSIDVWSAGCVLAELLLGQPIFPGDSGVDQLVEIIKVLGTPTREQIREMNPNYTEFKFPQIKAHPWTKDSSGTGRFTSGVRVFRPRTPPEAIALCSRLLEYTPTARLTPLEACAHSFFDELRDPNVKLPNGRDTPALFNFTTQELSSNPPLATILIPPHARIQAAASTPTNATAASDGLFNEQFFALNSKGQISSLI

GSK-3β Assay Activity, % @ 200 nM [1] [% @ 200 nM] | IC50 (PKC β-II) [nM] | IC50 (PKC α) [nM] | IC50 [1] [nM] | Molecule | other results
– | 607 | 2070 | 8 | COc1ccccc1C1=C(c2cn(-c3cncnc3)c3ccccc23)C(=O)NC1=O [Cpd 26, 3-(2-methoxyphenyl)-4-[1-(5-pyrimidinyl)-1H-indol-3-yl]-1H-pyrrole-2,5-dione] | PKC Activity Gamma, % @ 10 μM (Histone Based Assay) (PKC γ): 29% @ 10 μM
64 | – | – | – | CN(C)CCCn1cc(C2=C(c3cccc4ccccc34)C(=O)NC2=O)c2ccccc21 [Cpd 12, 3-[1-[3-(dimethylamino)propyl]-1H-indol-3-yl]-4-(1-naphthalenyl)-1H-pyrrole-2,5-dione] | –
– | – | – | 68 | O=C1NC(=O)C(c2cn(-c3cccnc3)c3ccccc23)=C1c1ccccc1O [Cpd 28, 3-(2-hydroxyphenyl)-4-[1-(3-pyridinyl)-1H-indol-3-yl]-1H-pyrrole-2,5-dione] | –
– | 527 | – | 26 | COc1ccccc1C1=C(c2cn(-c3cccnc3)c3ccccc23)C(=O)NC1=O [Cpd 27, 3-(2-methoxyphenyl)-4-[1-(3-pyridinyl)-1H-indol-3-yl]-1H-pyrrole-2,5-dione] | PKC Activity Alpha, % @ 10 μM (Histone Based Assay) (PKC α): 66% @ 10 μM
– | 32 | 816 | 18 | COc1ccccc1C1=C(c2cn(-c3cncc(C(N)=O)c3)c3ccc(Cl)cc23)C(=O)NC1=O [Cpd 58, 5-{5-Chloro-3-[4-(2-methoxyphenyl)-2,5-dioxo-2,5-dihydro-1H-pyrrol-3-yl]-indol-1-yl}-nicotinamide] | IC50 (PKC γ): 1270 nM
– | – | – | 390 | CCOC(Cn1cc(C2=C(c3ccccc3OC)C(=O)NC2=O)c2ccccc21)OCC [Cpd 7, 3-[1-(2,2-diethoxyethyl)-1H-indol-3-yl]-4-(2-methoxy-phenyl)-1H-pyrrole-2,5-dione] | PKC Activity Beta II, % @ 1 μM (Histone Based Assay) (PKC β-II): 68% @ 1 μM; PKC Activity Alpha, % @ 10 μM (Histone Based Assay) (PKC α): 39% @ 10 μM; PKC Activity Gamma, % @ 10 μM (Histone Based Assay) (PKC γ): 54% @ 10 μM
– | 42 | 592 | 51 | COc1ccccc1C1=C(c2cn(-c3cncc(C(=O)O)c3)c3ccc(Cl)cc23)C(=O)NC1=O [Cpd 56, 5-{5-Chloro-3-[4-(2-methoxyphenyl)-2,5-dioxo-2,5-dihydro-1H-pyrrol-3-yl]-indol-1-yl}-nicotinic acid] | IC50 (PKC γ): 832 nM
72 | – | – | – | C=Cn1cc(C2=C(c3cccc(OCC(O)CN(C)C)c3)C(=O)NC2=O)c2ccccc21 (stereo not shown) [Cpd 2, 3-[3-[3-(dimethylamino)-2-hydroxypropoxy]phenyl]-4-(1-ethenyl-1H-indol-3-yl)-1H-pyrrole-2,5-dione] | –
45 | – | – | – | O=C1NC(=O)C(c2cn(CCN3CCSC3)c3ccccc23)=C1c1csc2ccc(Cl)cc12 [Cpd 46, 3-(5-chlorobenzo[b]thien-3-yl)-4-[1-[2-(3-thiazolidinyl)ethyl]-1H-indol-3-yl]-1H-pyrrole-2,5-dione] | –
– | 51 | 117 | – | CN(C)CC(O)COc1ccccc1C1=C(c2cn(CCO)c3ccccc23)C(=O)NC1=O (stereo not shown) [Cpd 21, 3-[2-[3-(dimethylamino)-2-hydroxypropoxy]phenyl]-4-[1-(2-hydroxyethyl)-1H-indol-3-yl]-1H-pyrrole-2,5-dione] | IC50 (PKC γ): 477 nM
– | 107 | 412 | 25 | COc1ccccc1C1=C(c2cn(C3CCOCC3)c3ccccc23)C(=O)NC1=O [Cpd 55, 3-(2-Methoxyphenyl)-4-[1-(tetrahydropyran-4-yl)-1H-indol-3-yl]-1H-pyrrole-2,5-dione] | IC50 (PKC γ): 282 nM
– | 81 | 83 | – | CN(C)CCCn1cc(C2=C(c3csc4ccc(Cl)cc34)C(=O)NC2=O)c2ccccc21 [Cpd 31, 3-(5-chlorobenzo[b]thien-3-yl)-4-[1-[3-(dimethylamino)propyl]-1H-indol-3-yl]-1H-pyrrole-2,5-dione] | –
81 | – | – | – | CN(CCO)CCn1cc(C2=C(c3csc4ccc(Cl)cc34)C(=O)NC2=O)c2ccccc21 [Cpd 41, 3-(5-chlorobenzo[b]thien-3-yl)-4-(1-[2-[(2-hydroxyethyl)methylamino]ethyl]-1H-indol-3-yl]-1H-pyrrole-2,5-dione] | –
– | – | – | 40 | COC(=O)c1cncc(-n2cc(C3=C(c4ccccc4OC)C(=O)NC3=O)c3cc(Cl)ccc32)c1 [Cpd 57, 5-{5-Chloro-3-[4-(2-methoxyphenyl)-2,5-dioxo-2,5-dihydro-1H-pyrrol-3-yl]-indol-1-yl}-nicotinic acid methyl ester] | –
– | – | – | 39 | COc1ccccc1C1=C(c2cn(CC=O)c3ccccc23)C(=O)NC1=O [Cpd 8, 3-[2,5-dihydro-4-(2-methoxyphenyl)-2,5-dioxo-1H-pyrrol-3-yl]-1H-indole-1-acetaldehyde] | –
– | – | – | 27 | COc1ccccc1C1=C(c2cn(CCN(C)CCO)c3ccccc23)C(=O)NC1=O [Cpd 9, 3-[1-[2-[(2-hydroxyethyl)methylamino]ethyl]-1H-indol-3-yl]-4-(2-methoxyphenyl)-1H-pyrrole-2,5-dione] | PKC Activity Beta II, % @ 1 μM (Histone Based Assay) (PKC β-II): 40% @ 1 μM; PKC Activity Alpha, % @ 10 μM (Histone Based Assay) (PKC α): 27% @ 10 μM; PKC Activity Gamma, % @ 10 μM (Histone Based Assay) (PKC γ): 15% @ 10 μM
– | – | – | 96 | O=C1NC(=O)C(c2cn(-c3cccnc3)c3ccccc23)=C1c1ccc(O)cc1 [Cpd 29, 3-(4-hydroxyphenyl)-4-[1-(3-pyridinyl)-1H-indol-3-yl]-1H-pyrrole-2,5-dione] | –

Molecule | GSK-3β Assay Activity, % @ 200 nM [1] [% @ 200 nM] | IC50 (PKC β-II) [nM] | IC50 (PKC α) [nM] | IC50 [1] [nM] | other results
3-(3-bromophenyl)-4-[1-[3-(3-butynylmethylamino)propyl]-1H-indol-3-yl]-1H-pyrrole-2,5-dione [Cpd 22] | 62 | – | – | – | –
3-(2-bromo-5-[3-(dimethylamino)propyl]phenyl]-4-(1-phenyl-1H-indol-3-yl)-1H-pyrrole-2,5-dione [Cpd 25] | – | – | – | 110 | –
3-[1-[3-(3-butynylmethylamino)propyl]-1H-indol-3-yl]-4-(3-iodophenyl)-1H-pyrrole-2,5-dione [Cpd 23] | 67 | – | – | – | –
